Laboratory results: ChEMBL document CHEMBL6115002, “Discovery of novel sitolactone derivative leading to PANoptosis and differentiation of acute myeloid leukemia cells” (Eur J Med Chem, 2025)
Activity calls are given as the source filed them. No cut-off for these calls is given here.

Columns and labels:
Kasumi 1 [1] = experiment: Induction of cell cycle arrest in human Kasumi 1 cells assessed as increase in P21 level at 0.15 to 1.2 uM incubated for 24 hrs by Western blotting analysis; type: functional, cell-based; details: dose 0.15-1.2 µM
WEHI-3 [2] = experiment: Antitumor activity against mouse WEHI-3 cells implanted in Balb/c mouse assessed as reduction in liver metastasis at 1 mg/kg, po administered daily for 15 days by H and E staining based analysis; type: functional, organism-based; details: time 15.0 day
HT-29 = experiment: Antiproliferative activity against human HT-29 cells assessed as inhibition of cell proliferation incubated for 72 hrs by CCK-8 assay; type: functional, cell-based; details: HT-29, 72 h
WEHI-3 [3] = experiment: Induction of pyroptosis in mouse WEHI-3 cells assessed as effect on cleaved N-GSDMB at 0.6 to 2.5 uM incubated for 24 hrs by Western blotting analysis; type: functional, cell-based; details: dose 0.6-2.5 µM
Kasumi 1 [4] = experiment: Induction of […] in human Kasumi 1 cells assessed as increase in p-RIPK3 level at 0.625 to 5 uM incubated for 72 hrs by Western blotting analysis; type: functional, cell-based; details: dose 0.625-5 µM
Kasumi 1 [5] = experiment: Induction of cell cycle arrest in human Kasumi 1 cells assessed as increase in accumulation of cells at S phase at 0.5 uM incubated for 24 hrs by propidium iodide staining based flow cytometric analysis (reference value: 39.77%); type: functional
Kasumi 1 [6] = experiment: Induction of cell cycle arrest in human Kasumi 1 cells assessed as increase in accumulation of cells at G1 phase at 0.5 uM incubated for 24 hrs by propidium iodide staining based flow cytometric analysis (reference value: 50.41%); type: functional
[7] = Induction of cell cycle arrest in mouse WEHI-3 cells assessed as increase in accumulation of cells at G1 phase at 0.5 uM incubated for 24 hrs by propidium iodide staining based flow cytometric analysis (reference value: 46.93%); type: functional
HCT-116 = experiment: Antiproliferative activity against human HCT-116 cells assessed as inhibition of cell proliferation incubated for 72 hrs by CCK-8 assay; type: functional, cell-based; details: HCT-116, 72 h
A549 = experiment: Antiproliferative activity against human A549 cells assessed as inhibition of cell proliferation incubated for 72 hrs by CCK-8 assay; type: functional, cell-based; details: A549, 72 h
Calu-1 = experiment: Antiproliferative activity against human Calu-1 cells assessed as inhibition of cell proliferation incubated for 72 hrs by CCK-8 assay; type: functional, cell-based; details: Calu-1, 72 h
Kasumi 1 [8] = experiment: Disruption of pyruvate metabolic pathway in human Kasumi 1 cells by KEGG enrichment analysis; type: functional, cell-based
[9] = Induction of cell cycle arrest in mouse WEHI-3 cells assessed as increase in accumulation of cells at S phase at 0.5 uM incubated for 24 hrs by propidium iodide staining based flow cytometric analysis (reference value: 51.22%); type: functional
Kasumi 1 [10] = experiment: Induction of pyroptosis in human Kasumi 1 cells assessed as effect on cleaved N-GSDMB at 0.6 to 2.5 uM incubated for 24 hrs by Western blotting analysis; type: functional, cell-based; details: dose 0.6-2.5 µM
WEHI-3 [11] = experiment: Induction of pyroptosis in mouse WEHI-3 cells assessed as increase in p-MLKL level at 0.625 to 5 uM incubated for 72 hrs by Western blotting analysis; type: functional, cell-based; details: dose 0.625-5 µM
WEHI-3 [12] = experiment: Inhibition of colony formation in mouse WEHI-3 cells incubated for 15 days by crystal violet staining based analysis; type: functional, cell-based; details: dose 0.5-1 µM, time 15.0 day
Kasumi 1 [13] = experiment: Induction of cell cycle arrest in human Kasumi 1 cells assessed as increase in accumulation of cells at G2 phase at 0.5 uM incubated for 24 hrs by propidium iodide staining based flow cytometric analysis (reference value: 9.82%); type: functional
HCT-15 = experiment: Antiproliferative activity against human HCT-15 cells assessed as inhibition of cell proliferation incubated for 72 hrs by CCK-8 assay; type: functional, cell-based; details: HCT-15, 72 h
[14] = Permeability of compound in human Caco-2 cells; type: ADME, cell-based
WEHI-3 [15] = experiment: Induction of pyroptosis in mouse WEHI-3 cells assessed as increase in p-RIPK3 level at 0.625 to 5 uM incubated for 72 hrs by Western blotting analysis; type: functional, cell-based; details: dose 0.625-5 µM
Kasumi 1 [16] = experiment: Induction of cell cycle arrest in human Kasumi 1 cells assessed as increase in accumulation of cells at G2 phase at 1 uM incubated for 24 hrs by propidium iodide staining based flow cytometric analysis (reference value: 9.82%); type: functional
WEHI-3 [17] = experiment: Induction of cell cycle arrest in mouse WEHI-3 cells assessed as increase in P21 level at 0.15 to 1.2 uM incubated for 24 hrs by Western blotting analysis; type: functional, cell-based; details: dose 0.15-1.2 µM
[18] = Induction of cell cycle arrest in mouse WEHI-3 cells assessed as increase in accumulation of cells at S phase at 0.25 uM incubated for 24 hrs by propidium iodide staining based flow cytometric analysis (reference value: 51.22%); type: functional
[19] = Toxicity in Balb/c mouse implanted with mouse WEHI-3 cells assessed as change in body weight at 100 to 200 mg/kg, po administered (4aR,6aS,7S,9aS,9bS)-2-(((S)-2-(hydroxymethyl)pyrrolidin-1-yl)methyl)-6a-methyl7 ((triisopropylsilyl)oxy)decahydrocyclopenta[f]chromen-3(2H)-one as prodrug once daily and measured after 15 days; type: organism-based; details: in vivo, 360 h, dose 100-200 mg/kg, time 15 day
PC-3 = experiment: Antiproliferative activity against human PC-3 cells assessed as inhibition of cell proliferation incubated for 72 hrs by CCK-8 assay; type: functional, cell-based; details: PC-3, 72 h
[20] = Induction of cell cycle arrest in mouse WEHI-3 cells assessed as increase in accumulation of cells at G2 phase at 0.25 uM incubated for 24 hrs by propidium iodide staining based flow cytometric analysis (reference value: 1.85%); type: functional
Kasumi 1 [21] = experiment: PANoptosis in human Kasumi 1 cells assessed as cell death at 0.6 uM incubated for 72 hrs by optical microscopic analysis; type: functional, cell-based
[22] = Induction of cell cycle arrest in mouse WEHI-3 cells assessed as increase in accumulation of cells at G1 phase at 0.25 uM incubated for 24 hrs by propidium iodide staining based flow cytometric analysis (reference value: 46.93%); type: functional
WEHI-3 [23] = experiment: Induction of cell differentiation in mouse WEHI-3 cells assessed as increase in CD11B expression by Western blotting analysis; type: functional, cell-based; details: dose 0.125-1 µM
PANC-1 = experiment: Antiproliferative activity against human PANC-1 cells assessed as inhibition of cell proliferation incubated for 72 hrs by CCK-8 assay; type: functional, cell-based; details: PANC-1, 72 h
Kasumi 1 [24] = experiment: Induction of cell cycle arrest in human Kasumi 1 cells assessed as increase in accumulation of cells at S phase at 0.25 uM incubated for 24 hrs by propidium iodide staining based flow cytometric analysis (reference value: 39.77%); type: functional
[25] = Induction of cell cycle arrest in mouse WEHI-3 cells assessed as increase in accumulation of cells at G1 phase at 1 uM incubated for 24 hrs by propidium iodide staining based flow cytometric analysis (reference value: 46.93%); type: functional
WEHI-3 [26] = experiment: Induction of apoptosis in mouse WEHI-3 cells assessed as increase in caspase-3 level incubated for 72 hrs by Western blotting analysis; type: functional, cell-based; details: dose 0.625-5 µM
WEHI-3 [27] = experiment: Induction of cell differentiation in mouse WEHI-3 cells assessed as lobulated nuclei at 1 uM incubated for 24 hrs by giemsa-Wrights staining based analysis; type: functional
Kasumi 1 [28] = experiment: Induction of apoptosis in human Kasumi 1 cells assessed as increase in caspase-3 level incubated for 72 hrs by Western blotting analysis; type: functional, cell-based; details: dose 0.625-5 µM

In the case of `C=C1C[C@@H]2[C@@H](CC[C@]3(C)[C@@H](O[Si](C(C)C)(C(C)C)C(C)C)CC[C@@H]23)OC1=O`, the Activity (Kasumi 1 [1]) is reported as “Active”, the Activity (WEHI-3 [2]) is reported as “Active” and the IC50 (HT-29) is reported as 1740 nM. For the same molecule, the Activity (WEHI-3 [3]) was “Active”, the Activity (Kasumi 1 [4]) was “Active” and the Activity (Kasumi 1 [5]) was 31.64%. For the same molecule, the Activity (Kasumi 1 [6]) was 53.53%, the Activity [7] was 53.15% and the IC50 (HCT-116) was 1930 nM. For the same molecule, the IC50 (A549) was 5240 nM, the IC50 (Calu-1) was 3600 nM and the Activity (Kasumi 1 [8]) was “Active”. For the same molecule, the Activity [9] was 43.52%, the Activity (Kasumi 1 [10]) was “Active” and the Activity (WEHI-3 [11]) was “Active”. For the same molecule, the inhibition (WEHI-3 [12]) was “Dose-dependent-effect”, the Activity (Kasumi 1 [13]) was 14.84% and the IC50 (HCT-15) was 8900 nM. For the same molecule, the permeability [14] was “Permeable”, the Activity (WEHI-3 [15]) was “Active” and the Activity (Kasumi 1 [16]) was 18.95%. For the same molecule, the Activity (WEHI-3 [17]) was “Active”, the Activity [18] was 46.46% and the Activity [19] was “Non-toxic”. The IC50 (PC-3) was 2090 nM, the Activity [20] was 1.76% and the Activity (Kasumi 1 [21]) was “Active”. The Activity [22] was 51.78%, the Activity (WEHI-3 [23]) was “Dose-dependent-effect” and the IC50 (PANC-1) was 1310 nM. For the same molecule, the Activity (Kasumi 1 [24]) was 36.36%, the Activity [25] was 64.54% and the Activity (WEHI-3 [26]) was “Dose-dependent-effect”. The Activity (WEHI-3 [27]) was “Active” and the Activity (Kasumi 1 [28]) was “Dose-dependent-effect”.
